Test results published in patent publication US20240043439A1, “COMPOUNDS AS C5AR INHIBITORS” (Kira Pharmaceuticals (Suzhou) Ltd., priority 2020, published 2024).

What was measured:
[1] = biological target: human C5a receptor (C5aR) (Homo sapiens (Human), UniProt P21730); assay: Inhibition of C5a-C5aR binding (biotinylated human C5a, U937/C5aR cells, FACS)
How it was run: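 Binding read by flow cytometry as FITC-streptavidin signal (30 min on ice) on washed cells after a 120 min on-ice incubation of compound with biotinylated human C5a (30 nM working solution). Cells used were C5aR-transfected U937, suspended at 3×10^6 cells/ml in PBS containing 0.1% BSA.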

C5aR = C5aR (Homo sapiens (Human), UniProt P21730); assay: Calcium mobilization (U937/C5aR or HEK293/C5aR cells, FLIPR); assay type: cell-based; details: agonist human C5a at EC80, FLIPR
How it was run: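 FLIPR calcium-flux read-out using Fluo-4 Direct-loaded C5aR-expressing U937 or HEK293 cells stimulated with human C5a at its EC80. Compound was applied for 60 min before dye loading (50 min at 37 °C plus 10 min at room temperature) and agonist addition.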

Chain of C5aR (P21730 whole entry): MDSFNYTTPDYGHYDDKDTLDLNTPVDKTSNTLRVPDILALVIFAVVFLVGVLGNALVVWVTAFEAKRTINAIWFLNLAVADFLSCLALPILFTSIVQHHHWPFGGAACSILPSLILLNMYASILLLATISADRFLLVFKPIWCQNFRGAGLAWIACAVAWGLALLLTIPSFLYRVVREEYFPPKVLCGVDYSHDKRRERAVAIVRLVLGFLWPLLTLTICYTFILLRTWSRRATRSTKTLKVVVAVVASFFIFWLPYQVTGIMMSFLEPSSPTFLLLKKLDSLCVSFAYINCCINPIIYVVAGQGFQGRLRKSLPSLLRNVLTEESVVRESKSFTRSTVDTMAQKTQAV
Chain of human C5a receptor (C5aR) (P21730 whole entry): as above

SMILES | IC50 [1] [nM] | IC50 (C5aR) [µM]
Cc1ccc(NC(=O)[C@H]2CCCN(S(=O)(=O)c3c(F)cccc3F)[C@H]2c2ccc(NC3CCCC3)cc2)cc1C(F)(F)F [Compound 19, (2R,3S)-2-(4-(cyclopentylamino)phenyl)-1-((2,6-difluorophenyl)sulfonyl)-N-(4-methyl-3-(trifluoromethyl)phenyl)piperidine-3-carboxamide] | 2000 to 5000 | 2 to 10
Cc1ccc(NC(=O)[C@H]2CCCN(S(=O)(=O)c3c(Cl)cccc3Cl)[C@H]2c2ccc(NC3CCCC3)cc2)cc1C(F)(F)F [Compound 20, (2R,3S)-2-(4-(cyclopentylamino)phenyl)-1-((2,6-dichlorophenyl)sulfonyl)-N-(4-methyl-3-(trifluoromethyl)phenyl)piperidine-3-carboxamide] | 2000 to 5000 | > 10
Cc1ccc(NC(=O)[C@H]2CCCN(S(=O)(=O)c3ccccc3C)[C@H]2c2ccc(NC3CCCC3)cc2)cc1C(F)(F)F [Compound 22, (2R,3S)-2-(4-(cyclopentylamino)phenyl)-N-(4-methyl-3-(trifluoromethyl)phenyl)-1-(o-tolylsulfonyl)piperidine-3-carboxamide] | 500 to 2000 | > 10
COc1ccccc1S(=O)(=O)N1CCC[C@H](C(=O)Nc2ccc(C)c(C(F)(F)F)c2)[C@@H]1c1ccc(NC2CCCC2)cc1 [Compound 23, (2R,3S)-2-(4-(cyclopentylamino)phenyl)-1-((2-methoxyphenyl)sulfonyl)-N-(4-methyl-3-(trifluoromethyl)phenyl)piperidine-3-carboxamide] | 2000 to 5000 | 2 to 10
Cc1ccc(NC(=O)[C@H]2CCCN(S(=O)(=O)c3ccccc3OC(F)(F)F)[C@H]2c2ccc(NC3CCCC3)cc2)cc1C(F)(F)F [Compound 24, (2R,3S)-2-(4-(cyclopentylamino)phenyl)-N-(4-methyl-3-(trifluoromethyl)phenyl)-1-((2-(trifluoromethoxy)phenyl)sulfonyl)piperidine-3-carboxamide] | 2000 to 5000 | > 10
Cc1ccc(NC(=O)[C@H]2CCCN(S(=O)(=O)c3ccccc3F)[C@H]2c2ccc(NC3CCCC3)cc2)cc1C(F)(F)F [Compound 25, (2R,3S)-2-(4-(cyclopentylamino)phenyl)-1-((2-fluorophenyl)sulfonyl)-N-(4-methyl-3-(trifluoromethyl)phenyl)piperidine-3-carboxamide] | 500 to 2000 | > 10
Cc1ccc(NC(=O)[C@H]2CCCN(S(=O)(=O)c3ccccc3Cl)[C@H]2c2ccc(NC3CCCC3)cc2)cc1C(F)(F)F [Compound 26, (2R,3S)-1-((2-chlorophenyl)sulfonyl)-2-(4-(cyclopentylamino)phenyl)-N-(4-methyl-3-(trifluoromethyl)phenyl)piperidine-3-carboxamide] | 2000 to 5000 | > 10
Cc1ccc(NC(=O)[C@H]2CCCN(S(=O)(=O)c3ccccc3Br)[C@H]2c2ccc(NC3CCCC3)cc2)cc1C(F)(F)F [Compound 27, (2R,3S)-1-((2-bromophenyl)sulfonyl)-2-(4-(cyclopentylamino)phenyl)-N-(4-methyl-3-(trifluoromethyl)phenyl)piperidine-3-carboxamide] | 2000 to 5000 | 2 to 10
Cc1ccc(NC(=O)[C@H]2CCCN(S(=O)(=O)c3ccccc3C(F)(F)F)[C@H]2c2ccc(NC3CCCC3)cc2)cc1C(F)(F)F [Compound 28, (2R,3S)-2-(4-(cyclopentylamino)phenyl)-N-(4-methyl-3-(trifluoromethyl)phenyl)-1-((2-(trifluoromethyl)phenyl)sulfonyl)piperidine-3-carboxamide] | 2000 to 5000 | 2 to 10
Cc1ccc(NC(=O)[C@H]2CCCN(S(=O)(=O)c3ccccc3S(C)(=O)=O)[C@H]2c2ccc(NC3CCCC3)cc2)cc1C(F)(F)F [Compound 29, (2R,3S)-2-(4-(cyclopentylamino)phenyl)-N-(4-methyl-3-(trifluoromethyl)phenyl)-1-((2-(methylsulfonyl)phenyl)sulfonyl)piperidine-3-carboxamide] | 2000 to 5000 | 2 to 10
Cc1ccc(NC(=O)[C@H]2CCCN(S(=O)(=O)c3ccccc3C#N)[C@H]2c2ccc(NC3CCCC3)cc2)cc1C(F)(F)F [Compound 30, (2R,3S)-1-((2-cyanophenyl)sulfonyl)-2-(4-(cyclopentylamino)phenyl)-N-(4-methyl-3-(trifluoromethyl)phenyl)piperidine-3-carboxamide] | 2000 to 5000 | 2 to 10
Cc1ccc(NC(=O)[C@H]2CCCN(S(=O)(=O)c3ccc4ccccc4c3)[C@H]2c2ccc(NC3CCCC3)cc2)cc1C(F)(F)F [Compound 32, (2R,3S)-2-(4-(cyclopentylamino)phenyl)-N-(4-methyl-3-(trifluoromethyl)phenyl)-1-(naphthalen-2-ylsulfonyl)piperidine-3-carboxamide] | 2000 to 5000 | 2 to 10
Cc1ccc(NC(=O)[C@H]2CCCN(S(=O)(=O)c3cccc4ccccc34)[C@H]2c2ccc(NC3CCCC3)cc2)cc1C(F)(F)F [Compound 33, (2R,3S)-2-(4-(cyclopentylamino)phenyl)-N-(4-methyl-3-(trifluoromethyl)phenyl)-1-(naphthalen-1-ylsulfonyl)piperidine-3-carboxamide] | 2000 to 5000 | 2 to 10
Cc1ccc(NC(=O)[C@H]2CCCN(S(=O)(=O)c3ccccc3)[C@H]2c2ccc(NC3CCCC3)cc2)cc1C(F)(F)F [Compound 34, (2R,3S)-2-(4-(cyclopentylamino)phenyl)-N-(4-methyl-3-(trifluoromethyl)phenyl)-1-(phenylsulfonyl)piperidine-3-carboxamide] | 2000 to 5000 | > 10
Cc1ccc(NC(=O)[C@H]2CCCN(S(=O)(=O)c3cccnc3)[C@H]2c2ccc(NC3CCCC3)cc2)cc1C(F)(F)F [Compound 35, (2R,3S)-2-(4-(cyclopentylamino)phenyl)-N-(4-methyl-3-(trifluoromethyl)phenyl)-1-(pyridin-3-ylsulfonyl)piperidine-3-carboxamide] | 2000 to 5000 | > 10
Cc1ccc(NC(=O)[C@H]2CCCN(S(=O)(=O)c3cccnc3Cl)[C@H]2c2ccc(NC3CCCC3)cc2)cc1C(F)(F)F [Compound 36, (2R,3S)-1-((2-chloropyridin-3-yl)sulfonyl)-2-(4-(cyclopentylamino)phenyl)-N-(4-methyl-3-(trifluoromethyl)phenyl)piperidine-3-carboxamide] | 500 to 2000 | 2 to 10
Cc1ccc(NC(=O)[C@H]2CCCN(S(=O)(=O)c3c(C)nn(C)c3C)[C@H]2c2ccc(NC3CCCC3)cc2)cc1C(F)(F)F [Compound 38, (2R,3S)-2-(4-(cyclopentylamino)phenyl)-N-(4-methyl-3-(trifluoromethyl)phenyl)-1-((1,3,5-trimethyl-1H-pyrazol-4-yl)sulfonyl)piperidine-3-carboxamide] | 2000 to 5000 | > 10
Cc1ccc(NC(=O)[C@H]2CCCN(S(=O)(=O)Cc3ccccc3)[C@H]2c2ccc(NC3CCCC3)cc2)cc1C(F)(F)F [Compound 40, (2R,3S)-1-(benzylsulfonyl)-2-(4-(cyclopentylamino)phenyl)-N-(4-methyl-3-(trifluoromethyl)phenyl)piperidine-3-carboxamide] | < 50 | 2 to 10
Cc1cccc(F)c1C(=O)N1[C@@H]2CCC[C@@H]2C[C@H](C(=O)Nc2ccc3cnn(C)c3c2)[C@@H]1c1ccc(NC2CCCC2)cc1 [Compound 50, (2R,3S,4aR,7aR)-2-(4-(cyclopentylamino)phenyl)-1-(2-fluoro-6-methylbenzoyl)-N-(1-methyl-1H-indazol-6-yl)octahydro-1H-cyclopenta[b]pyridine-3-carboxamide] | < 50 | 0.5 to 2
Cc1cccc(F)c1C(=O)N1[C@@H]2CCC[C@@H]2C[C@H](C(=O)NC2CCOCC2)[C@@H]1c1ccc(NC2CCCC2)cc1 [Compound 52, (2R,3S,4aR,7aR)-2-(4-(cyclopentylamino)phenyl)-1-(2-fluoro-6-methylbenzoyl)-N-(tetrahydro-2H-pyran-4-yl)octahydro-1H-cyclopenta[b]pyridine-3-carboxamide] | 2000 to 5000 | 2 to 10
Cc1ccc(NC(=O)[C@H]2CCCN(c3ncnc4cccnc34)[C@H]2c2ccc(NC3CCCC3)cc2)cc1C(F)(F)F [Compound 161, (2R,3S)-2-(4-(cyclopentylamino)phenyl)-N-(4-methyl-3-(trifluoromethyl)phenyl)-1-(pyrido[3,2-d]pyrimidin-4-yl)piperidine-3-carboxamide] | 50 to 500 | 2 to 10
Cc1ccc(NC(=O)[C@H]2CCCN(c3ncnc4cccnc34)[C@H]2c2ccc(N(C(=O)OCc3ccccc3)C3CCCC3)cc2)cc1C(F)(F)F [Compound 166, benzyl cyclopentyl(4-((2R,3S)-3-((4-methyl-3-(trifluoromethyl)phenyl)carbamoyl)-1-(pyrido[3,2-d]pyrimidin-4-yl)piperidin-2-yl)phenyl)carbamate] | 2000 to 5000 | 2 to 10
Cc1ccc(NC(=O)[C@H]2CCCN(C(=O)c3c(C)noc3C)[C@H]2c2ccc(NC3CCCC3)cc2)cc1C(F)(F)F [Compound 190, (2R,3S)-2-(4-(cyclopentylamino)phenyl)-1-(3,5-dimethylisoxazole-4-carbonyl)-N-(4-methyl-3-(trifluoromethyl)phenyl)piperidine-3-carboxamide] | 500 to 2000 | 2 to 10
Cc1ccc(NC(=O)[C@H]2CCCN[C@H]2c2ccc(NC3CCCC3)cc2)cc1C(F)(F)F [Compound 200, (2R,3S)-2-(4-(cyclopentylamino)phenyl)-N-(4-methyl-3-(trifluoromethyl)phenyl)piperidine-3-carboxamide] | > 5000 | 2 to 10
